Reference: patent publication US7285555B2, “6-aryl-7-halo-imidazo[1,2-a]pyrimidines as anticancer agents” (Wyeth Holdings Corporation, priority 2003, dated 2007)

Columns and labels:
KB-V1 cells = experiment: SRB cytotoxicity test procedure with KB-V1 cells; format: cell-based, human; conditions: SRB assay; for Ratio VI/KB: IC50 on KB VI cells/IC50 on KB cells
Text: Human cancer cell lines, unless otherwise noted, are obtained from the American Type Culture Collection (Rockville, Md.). The following drug-sensitive parental cell lines, and their derived drug-resistant counterparts, are obtained from the originators as listed: (a) S1 (parental line from a subclone of human colon carcinoma line LS174T) and derived S1-M1-3.2 (herein called S1-M1) which expresses the MXR drug transporter protein, are provided by Dr. L. Greenberger, Wyeth Research (Rabindran, S. K., He, H., Singh, M., Brown, E., Collins, K. I., Annable, T., and Greenberger, L. M. Reversal of a novel multidrug resistance mechanism in human colon carcinoma cells by fumitremorgin C. Cancer Res., 58: 5850-5858,1998); (b) parental HL-60 human promyelocytic leukemia line and derived HL-60/ADR, which expresses the MRP1 drug transporter protein, are provided by Dr. M. Center, University of Kansas (McGrath, T., and Center, M. S. Adriamycin resistance in HL60 cells in the absence of detectable P-glycoprotein. Biochem. Biophys. […] J. Biol. Chem., 261: 7762-7770, 1986) via Dr. L. Greenberger, Wyeth Research.
The SRB standard cytotoxicity assay is done according to previously reported methods (Discafani, C. M., Carroll, M. L., Floyd Jr., M. B. F., Hollander, I. J., Husain, Z., Johnson, B. D., Kitchen, D., May, M. K., Malo, M. S., Minnick Jr., A. A., Nilakantan, R., Shen, R., Wang Y-F., Wissner, A., Greenberger, L. M. Irreversible inhibition of epidermal growth factor receptor tyrosine kinase with in vivo activity by N-[4-[3-bromophenyl)amino]-6-quinaxolinyl]-2-butynamide (CL-387,785). Biochem. Pharmacol., 57: 917-925, 1999). Briefly, cells are plated in 100 μL of medium in 96-well flat-bottom microtiter plates in the morning of day 1 and allowed to adhere to the plates for 2-6 hr. Compounds are serially diluted into medium as 2× stocks and 100 μL of these stocks are added to cells in duplicate. Compounds are incubated with cells for 3 days. At the end of the incubation period the sulforhodamine B (SRB) assay, which measures protein content as an assessment of cell survival, is performed as described previously (Skehan, P., Storeng, R., Scudiero, D., Monks, A., McMahon, J., Vistica, D., Warren, J. T., Bokesch, H., Kenney, S., Boyd, M. R. New calorimetric cytotoxicity assay for anticancer-drug screening. J. Natl. Cancer Inst., 82:1107-1112, 1990) with some modifications. Medium is gently decanted from plates and replaced with 200 μL per well of cold serum-free medium containing a final concentration of 10% trichloroacetic acid. The plates are incubated for 1 hr at 40, washed 5 times in cold distilled water, and air-dried overnight. The fixed cells are stained for 10 min with 80 μL per well of 0.04% SRB solution prepared in 1% glacial acetic acid. Staining solution is decanted, plates are washed 5 times in 1% glacial acetic acid, and then air-dried until completely dry. Stained cell product is dissolved in 150 μL per well of 10 mM Trizma Base with shaking for 20 minutes. Absorbance is read on a Victor V multi-label plate reader (Perkin Elmer, Gaithersburg, Md.).
The KB lines express different amounts of the P-glycoprotein (MDR1) membrane pump which produces resistance to the action of many cytotoxic compounds, including paclitaxel and vincristine. The parental KB line expresses no P-glycoprotein, KB-8-5 expresses moderate levels of the protein, and KB-V1 expresses very high levels.

HL-60 cells = experiment: MTS cytotoxicity test procedure with HL-60 cells; format: cell-based; conditions: Homo sapiens, MTS assay, means of 2 independent experiments
Text: Human cancer cell lines, unless otherwise noted, are obtained from the American Type Culture Collection (Rockville, Md.). […]
The MTS assay, which is sold in kit form by Promega (Madison, Wis.; CellTiter 96 AQueous Non-Radioactive Cell Proliferation Assay), is based on the conversion by viable cells, but not by dead cells, of the tetrazolium salt, MTS (3-(4,5-dimethylthiazol-2-yl)-5-(3-carboxymethoxyphenyl)-2-(4-sulphophenyl)-2H-tetrazolium, inner salt), into a water-soluble colored formazan which is detected by spectrophotometry. […] For the test procedure, cells are harvested by trypsinization (or, in the case of non-adherent cells, by simple resuspension), washed, counted and distributed to wells of 96-well flat-bottom microtiter plates at 1000 cells per well in 200 μL of medium. […]
After three days of culture with test compounds (day 5 overall), the MTS assay is done on all wells of the experimental plates. The absorbance values of the quadruplicate sample wells are averaged and divided by the average of the “time 0” values. […]

| Structure (SMILES) | IC50 (KB-V1 cells; Homo sapiens, KB-V1, KB VI cells, means of 2 independent experiments) | Ratio VI/KB (KB-V1 cells) | Ratio VI/KB (KB-V1 cells; listed as paclitaxel) | IC50 (HL-60 cells) |
| --- | --- | --- | --- | --- |
| CC(=O)O[C@H]1C(=O)[C@@]2(C)[C@H]([C@H](OC(=O)c3ccccc3)[C@]3(O)C[C@H](OC(=O)[C@H](O)[C@@H](NC(=O)c4ccccc4)c4ccccc4)C(C)=C1C3(C)C)[C@]1(OC(C)=O)CO[C@@H]1C[C@@H]2O [Paclitaxel, reference compound] | > 3000 nM | >1360 | > 1,360 |  |
| CN(C)CCCOc1cc(F)c(-c2c(Cl)nc3nccn3c2C2CCCCCC2)c(F)c1 [Example 6, 3-[4-(7-Chloro-5-cycloheptylimidazo[1,2-a]pyrimidin-6-yl)-3,5-difluorophenoxy]-N,N-dimethylpropan-1-amine] |  |  |  | 53 nM |
